Consider eleven molecules from ChEMBL document CHEMBL1201862, “PubChem BioAssay data set” (2004).

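Five concentrations, 48 hours, 96-well plates. GI50: concentration for 50% inhibition of growth.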 The source made the active and inactive calls. Cut-off read from the data, not from the text of the source: active = GI50 up to about 1.1 µM and inactive = higher.

Test in all cases: NCI-60 cell line screen, 48 h
Assay [1] relates to 786-0.
The test system of assay [2] is A549.
The test system of assay [3] is HCC 2998.
Assay [4] concerns HL-60.
Assay [5] has as its system HOP-62.
The subject of assay [6] is HOP-92.
The subject of assay [7] is K562.
Assay [8] deals with LOX IMVI.
For assay [9], the system named is M14.
The test system of assay [10] is Malme-3M.
Assay [11] deals with NCI-H460.
The test system of assay [12] is NCI-H522.
Assay [13] relates to OVCAR-3.
The test system of assay [14] is RPMI-8226.
For assay [15], the system named is SF-295.
Assay [16] deals with SK-MEL-28.
Assay [17] concerns SK-MEL-2.
The subject of assay [18] is T47D.
Assay [19] concerns UACC-257.
The subject of assay [20] is UO-31.

Consider `Cc1ccc2c(c1)OC1Nc3ccccc3C1=C2O` (stereo not drawn), for which the GI50 was 20.1 µM (inactive) in [1]; 23.4 µM (inactive) in assay [2]; 14.2 µM (inactive) in assay [3]; 16.2 µM (inactive) in assay [4]; 27.4 µM (inactive) in assay [5]; 38.9 µM (inactive) in assay [6]. In addition, the GI50 in [7] is 25.9 µM (inactive); in [8], 23.8 µM (inactive); in [9], 21.5 µM (inactive); in assay [10], 74.8 µM (inactive); in [11], 20.2 µM (inactive); in assay [12], 28.7 µM (inactive). The GI50 is 3.86 µM (inactive) in [13]; 28 µM (inactive) in [14]; 21.6 µM (inactive) in [15]; 53.7 µM (inactive) in assay [16]; 16.9 µM (inactive) in [17]; 20.3 µM (inactive) in assay [18]. Further, the GI50 was 22.2 µM (inactive) in [19] and 21.2 µM (inactive) in [20].

In the case of `COc1ccccc1C1SCC(=O)N1c1ccc(-n2c(-c3ccccc3)nc3ccccc3c2=O)cc1` (stereo not drawn), the GI50 in assay [1] was > 100 µM (inactive); in assay [2] it was 62.7 µM (inactive); in assay [3], 70.6 µM (inactive); in assay [4], > 10 µM (inactive); in assay [5], > 100 µM (inactive); in assay [6], 19.2 µM (inactive). The GI50 is 47.9 µM (inactive) in assay [7]; 77.8 µM (inactive) in assay [8]; 69.2 µM (inactive) in assay [10]; 40.7 µM (inactive) in assay [11]; 40.3 µM (inactive) in assay [12]; > 100 µM (inactive) in assay [13]. In addition, the GI50 in assay [14] is > 100 µM (inactive); in [15] it was 75.5 µM (inactive); in assay [16], > 100 µM (inactive); in assay [17], > 100 µM (inactive); in assay [18], 12.9 µM (inactive); in assay [19] it was > 100 µM (inactive). Further, the GI50 in assay [20] is 9.1 µM (inactive).

For the molecule `COc1ccc(C(O)c2ccc3c(c2)OCO3)cc1` (stereo not drawn), the GI50 in assay [1], in assay [2], in assay [3], in assay [4], in assay [5] and in assay [6] was > 100 µM (inactive) in each case. In addition, the GI50 in assay [7], in assay [8], in assay [9], in assay [10], in assay [11] and in assay [12] was > 100 µM (inactive) each time. Further, the GI50 in assay [13] is > 100 µM (inactive); in assay [15], > 100 µM (inactive); in assay [16] it was > 100 µM (inactive); in assay [18], 99.3 µM (inactive); in assay [19], > 100 µM (inactive); in assay [20], 74.1 µM (inactive).

Regarding `CN(N=O)C(=O)Nc1c[nH]c(=O)[nH]c1=O`, the GI50 in assay [1], in assay [2], in [3], in assay [4], in [5] and in [6] was > 100 µM (inactive) throughout. Also, the GI50 in [7], in [8], in assay [9], in assay [10], in assay [12] and in assay [13] was > 100 µM (inactive) each time. Further, the GI50 in assay [15], in assay [16], in assay [17], in assay [18], in assay [19] and in assay [20] was > 100 µM (inactive) throughout.

`Cc1cc2c(cc1N)C(C)C1(CCC(=O)N2Cc2ccccc2)OCCO1` (stereo not drawn): the GI50 in [1], in assay [2], in assay [3], in assay [5], in assay [6] and in assay [8] was > 100 µM (inactive) in each case. Moreover, the GI50 in assay [9] was > 100 µM (inactive); in [10] it was 89.7 µM (inactive); in [11] it was > 100 µM (inactive); in [12] it was > 100 µM (inactive); in assay [13], > 100 µM (inactive); in assay [14], 57.4 µM (inactive). The GI50 in assay [15], in assay [16], in [17], in assay [18], in assay [19] and in assay [20] was > 100 µM (inactive) each time.

As to `COc1ccc(/N=N/C(=O)NC(CC(C)C)C(=O)NC(Cc2ccccc2)C(=O)O)cc1` (stereo not drawn), the GI50 in assay [1] was > 100 µM (inactive); in assay [2], 2.12 µM (inactive); in assay [3] it was 2.63 µM (inactive); in assay [4], 0.685 µM (active); in assay [5], > 100 µM (inactive); in [6], 16.2 µM (inactive). The GI50 was 0.287 µM (active) in [7]; 18.2 µM (inactive) in assay [8]; 0.459 µM (active) in [9]; 7.55 µM (inactive) in assay [10]; 3.78 µM (inactive) in assay [11]; 6.24 µM (inactive) in [12]. The GI50 in assay [13] is 16.5 µM (inactive); in [14], 2.28 µM (inactive); in assay [15] it was 1.62 µM (inactive); in assay [16] it was 4.85 µM (inactive); in assay [18], 1.06 µM (active); in [19], 3.41 µM (inactive). Moreover, the GI50 in assay [20] is 3.37 µM (inactive).

For the molecule `CC(/C=N/N=C1NCCCN1)=N\N=C1NCCCN1`, the GI50 is > 100 µM (inactive) in assay [1]; > 100 µM (inactive) in assay [2]; > 100 µM (inactive) in [3]; > 100 µM (inactive) in [5]; 40.2 µM (inactive) in [6]; > 100 µM (inactive) in assay [7]. Also, the GI50 in assay [8], in [9], in assay [10], in [11], in assay [12] and in assay [13] was > 100 µM (inactive) in each case. In addition, the GI50 in assay [14], in assay [15], in assay [16], in assay [18], in [19] and in [20] was > 100 µM (inactive) each time.

As to `O=C(c1ccncc1)C1C(=O)c2ccccc2C1C1(O)c2ccccc2CC1C(O)c1ccncc1` (stereo not drawn), the GI50 in assay [1] is 39.9 µM (inactive); in assay [2], 29.6 µM (inactive); in assay [3] it was 57.3 µM (inactive); in [5], 35.6 µM (inactive); in assay [6], 47.9 µM (inactive); in assay [7], 42 µM (inactive). The GI50 in assay [8] is 33.4 µM (inactive); in assay [9], 25.8 µM (inactive); in assay [10] it was 58.7 µM (inactive); in assay [11], 34.2 µM (inactive); in [12], 31.3 µM (inactive); in assay [14], 19 µM (inactive). Besides, the GI50 in assay [15] was 31.4 µM (inactive); in assay [16], 89.3 µM (inactive); in assay [17], 23.6 µM (inactive); in assay [18], 50.8 µM (inactive); in assay [19], 52.7 µM (inactive); in assay [20], 13.9 µM (inactive).

For `CN(C)CCn1c2c(c3ccccc31)CCc1ccccc1-2`, the GI50 in assay [1] was 14.8 µM (inactive); in [2], 15 µM (inactive); in [3], 0.569 µM (active); in assay [5], 15.7 µM (inactive); in assay [6] it was 14 µM (inactive); in assay [8] it was 17 µM (inactive). For the same molecule, the GI50 in assay [9] is 13.5 µM (inactive); in [10], 16.1 µM (inactive); in [11] it was 14.4 µM (inactive); in assay [12] it was 15.9 µM (inactive); in assay [13], 14.6 µM (inactive); in assay [14], 6.49 µM (inactive). In addition, the GI50 in assay [15] is 16.9 µM (inactive); in assay [16], 15.8 µM (inactive); in assay [17] it was 15.3 µM (inactive); in assay [18] it was 15.8 µM (inactive); in [19], 14.6 µM (inactive); in [20], 13.6 µM (inactive).

With `O=C(CCC(=O)c1ccsc1)c1ccsc1`, the GI50 in assay [1], in [2], in assay [3], in assay [4], in assay [5] and in assay [6] was > 100 µM (inactive) throughout. The GI50 in assay [8], in assay [9], in assay [10], in assay [11], in assay [12] and in assay [13] was > 100 µM (inactive) each time. Besides, the GI50 in assay [14], in assay [15], in assay [16], in assay [17], in [18] and in assay [19] was > 100 µM (inactive) throughout. Also, the GI50 in assay [20] was > 100 µM (inactive).

In the case of `CCOC(=O)CSc1nc2ccccc2c(=O)n1N`, the GI50 is > 100 µM (inactive) in [1]; 83 µM (inactive) in assay [2]; 37.6 µM (inactive) in assay [3]; > 100 µM (inactive) in assay [6]; > 100 µM (inactive) in [7]; > 100 µM (inactive) in assay [8]. Moreover, the GI50 in assay [9] is > 100 µM (inactive); in [10] it was > 100 µM (inactive); in [11] it was 83.4 µM (inactive); in [12], > 100 µM (inactive); in assay [13] it was > 100 µM (inactive); in assay [14] it was > 100 µM (inactive). Also, the GI50 in assay [15], in assay [16], in assay [17], in assay [18], in assay [19] and in [20] was > 100 µM (inactive) each time.
